Experimental data as given in US20250285714A1, “A PHARMACEUTICAL PLATFORM TECHNOLOGY FOR DRUG DISCOVERY AND CONSUMER HEALTH PRODUCT DEVELOPMENT” (SINOVEDA CANADA INC., priority 2021, published 2025).

Assays:
[1] = human
Source text: An inhouse physiologically based pharmacokinetic (PBPK) simulation program has been established. It supports one, two and multi-compartment models. The compartmental model program was designed using Matlab and Simulink to emulate human physiological conditions. With appropriate human physiological parameter input, absorption, distribution, metabolism and excretion profiles of compounds of interest can be estimated in human.
The parameter used for the evaluation is maximum exposure index (MEI), a product of AUC and the highest percentage recorded for Cannabis.

[2] = test system: HepG2 cells; experiment: In-cell Western-blot protein expression in treated HepG2 cells; type: cell-based, human; details: six hour treatment; CBD 17, CBC 23, CBN 20, Sorafenib 12, SCI-111 17, SCI-521 17 μg/ml
Method: In-cell Western-blot analysis: Protein expression was assessed by seeding 1000 HepG2 cells/well from cyro frozen stocks into 384 well optical bottom black culture plates from Thermo-Scientific (item 142761) in IMDM media with 20% FBS and 1% ethanol. […] After a six hour treatment, the cells were fixated with 4% formaldehyde for 15 minutes, permeated with 0.1% triton-x100 for 10 minutes, and left in blocking buffer (phosphate buffered saline (PBS) with 3% bovine serum albumin (BSA)) overnight at 4 degrees Celsius. The following day, the cells were rinsed with PBS, incubated with 25 μl PBS containing primary antibody (Table 1) for 3 hours at 25° C. Subsequently, the primary antibody was removed, cells were rinsed twice with PBS, and incubated with 25 μl of PBS containing the secondary antibody (Rabbit: Alexa Fluor 790 donkey anti-rabbit IgG (H+L) Lot 2409042; Mouse: Alexa Fluor 790 donkey anti-mouse IgG (H+L) Lot 2300923) at a concentration of 1:2000. Draq5 (1:2000) was added for normalization of data. After an hour incubation in the secondary antibody, the cells were rinsed with PBS and readings at 700 and 800 nm were acquired on a Licor Odyssey fluorescence imager with a resolution of 21 μm. Analysis was subsequently performed with Empiria Studio 2.1. A total of 5 samples were collected per antibody and the sample size was reduced to 3 for the statistical analysis.

[3] = test system: HepG2 cells; experiment: rtPCR TaqMan array of cancer pathway genes in treated HepG2 cells; type: cell-based, human; details: 6 h; CBD 17, CBC 23, CBN 20, 1:1:1 17, sorafenib 12 μg/ml
Method: rt-PCR: Target cancer gene pathways will be analyzed using a custom Taqman array card exploring 91 unique genes involved with a few cancer pathways.
Two million HepG2 cells in IMDM media with 20% FBS, and 1% ethanol were seeded in T75 flasks and incubated at 37° C., 7.5% CO2 until 70-80% confluent (approx. […]). The media were replenished with media containing individual cannabinoids (CBD 17 μg/ml, CBC 23 μg/ml, CBN 20 μg/ml) and cannabinoid mixture of CBD:CBC:CBN of 1:1:1 (17 μg/ml) and incubated for 6 hours prior to harvest. […] Untreated cells were included as a negative control Glyceraldehyde-3-phosphate dehydrogenase (GAPDH) was included as an endogenous control and used for normalization of the data.
RNA was extracted using Invitrogen's Dynabead mRNA DIRECT kit using the recommended protocol to provide 50 μL of a purified mRNA solution. […] of RT master mix was mixed into the mRNA solution and the mixture left to react at 37° C. for 60 minutes. Reverse transcriptase inactivation was performed at 95° C. for 5 minutes and the resulting cDNA samples were kept at 4° C. until use. Fifty-five microliters of TaqMan Fast Advance master mix were added to an equal amount of cDNA sample containing 1 μg/100 μl of cDNA, which was loaded into each card reservoir. The cards were centrifuged twice at 1200 RPM for 3 minutes in a Legend XFR centrifuge and the rtPCR reaction was conducted in a QuantStudio7 PCR instrument using the standard settings with 40 amplification cycles.
Assessment of cancer gene pathways were carried out using custom designed TaqMan array cards exploring 86 genes linked to numerous cancer related pathways. […] In addition to individual pathways, genes linked to specific cellular processes were also explored.

[4] = known human values; cited from earlier work

CC1(C)C2CCC1(C)C(O)C2 (centres unmarked) [Borneol]
MEI, AUC* % mass [1]: 0.10

CCCCCc1cc(O)c2c(c1)OC(C)(CCC=C(C)C)C=C2 (centres unmarked) [CBC, Cannabichromene]
Protein fold change, DVLD (Cellular Adhesion) [2]: 1.34 Fold change | Protein fold change, MEK (MAP kinase/PI3K) [2]: 1.22 Fold change | Protein fold change, MEK PO4 (MAP kinase/PI3K) [2]: 1.68 Fold change | Protein fold change, MET PO4 (Receptor) [2]: 1.80 Fold change | Protein fold change, PTEN PO4 (MAP kinase/PI3K) [2]: 1.40 Fold change | Protein fold change, TEAD2 (HIPPO signaling) [2]: 1.34 Fold change | Protein fold change, c-MYC (Apoptosis) [2]: 1.70 Fold change | Protein fold change, p53 (Apoptosis) [2]: 1.26 Fold change | rtPCR Log2 fold change relative to untreated cells, AKT1 (PI3K/AKT/MTOR) [3]: −1.915 Log2 fold change | rtPCR Log2 fold change relative to untreated cells, APFAF1 (Apoptosis) [3]: −1.945 Log2 fold change | rtPCR Log2 fold change relative to untreated cells, BAD (Apoptosis) [3]: −2.917 Log2 fold change | rtPCR Log2 fold change relative to untreated cells, BAX (Apoptosis) [3]: −2.332 Log2 fold change | rtPCR Log2 fold change relative to untreated cells, BCL2 (Apoptosis) [3]: 3.95 Log2 fold change | rtPCR Log2 fold change relative to untreated cells, BCL2L1 (Apoptosis) [3]: −1.241 Log2 fold change | rtPCR Log2 fold change relative to untreated cells, CAMK1 (Ca signaling) [3]: −2.15 Log2 fold change | rtPCR Log2 fold change relative to untreated cells, CCND1 (Cell Cycle Arrest) [3]: −1.206 Log2 fold change | rtPCR Log2 fold change relative to untreated cells, CDK1 (Cell Cycle Arrest) [3]: −1.725 Log2 fold change | rtPCR Log2 fold change relative to untreated cells, CDK2 (Cell Cycle Arrest) [3]: −1.316 Log2 fold change | rtPCR Log2 fold change relative to untreated cells, CDK4 (Cell Cycle Arrest) [3]: −1.914 Log2 fold change | rtPCR Log2 fold change relative to untreated cells, CDK6 (Cell Cycle Arrest) [3]: −1.735 Log2 fold change | rtPCR Log2 fold change relative to untreated cells, CRK - p38 (Cellular Adhesion) [3]: −1.414 Log2 fold change | rtPCR Log2 fold change relative to untreated cells, CTNNB1 (Cellular Adhesion) [3]: −1.487 Log2 fold change | rtPCR Log2 fold change relative to untreated cells, ELK1 (Ca signaling) [3]: −3.143 Log2 fold change | rtPCR Log2 fold change relative to untreated cells, GSK3B (Cellular Adhesion) [3]: −1.728 Log2 fold change | rtPCR Log2 fold change relative to untreated cells, MAP1LC3A (MAP kinase) [3]: −2.006 Log2 fold change | rtPCR Log2 fold change relative to untreated cells, MAP2K1 (MAP kinase) [3]: −2.534 Log2 fold change | rtPCR Log2 fold change relative to untreated cells, MAPK8 (MAP kinase) [3]: −2.068 Log2 fold change | rtPCR Log2 fold change relative to untreated cells, MITF (Drug Resistance) [3]: −4.421 Log2 fold change | rtPCR Log2 fold change relative to untreated cells, MNT (Cell Cycle Arrest) [3]: −2.804 Log2 fold change | rtPCR Log2 fold change relative to untreated cells, MTOR (PI3K/AKT/MTOR) [3]: −1.847 Log2 fold change | rtPCR Log2 fold change relative to untreated cells, NOTCH1 (NOTCH) [3]: −1.949 Log2 fold change | rtPCR Log2 fold change relative to untreated cells, PAK3 (P21) (Cell Cycle Arrest) [3]: −1.643 Log2 fold change | rtPCR Log2 fold change relative to untreated cells, PIK3C2A (PI3K/AKT/MTOR) [3]: −1.77 Log2 fold change | rtPCR Log2 fold change relative to untreated cells, PIK3R5 (PI3K/AKT/MTOR) [3]: −1.821 Log2 fold change | rtPCR Log2 fold change relative to untreated cells, RAC1 (MAP kinase) [3]: −1.422 Log2 fold change | rtPCR Log2 fold change relative to untreated cells, RASA1 (MAP kinase) [3]: −1.307 Log2 fold change | rtPCR Log2 fold change relative to untreated cells, RASSF1 (MAP kinase) [3]: −1.813 Log2 fold change | rtPCR Log2 fold change relative to untreated cells, ROCK1 (Cellular Adhesion) [3]: −1.213 Log2 fold change | rtPCR Log2 fold change relative to untreated cells, SMAD2 (TGF signaling) [3]: −1.617 Log2 fold change | rtPCR Log2 fold change relative to untreated cells, SMAD3 (TGF signaling) [3]: −2.487 Log2 fold change | rtPCR Log2 fold change relative to untreated cells, STAT1 (JAK-STAT) [3]: −2.228 Log2 fold change | rtPCR Log2 fold change relative to untreated cells, STAT5A (JAK-STAT) [3]: −1.559 Log2 fold change | rtPCR Log2 fold change relative to untreated cells, SUFU (Hedgehog) [3]: −1.668 Log2 fold change | rtPCR Log2 fold change relative to untreated cells, TAZ (HIPPO) [3]: −1.874 Log2 fold change | rtPCR Log2 fold change relative to untreated cells, gene name not printed (Angiogenesis, row r45) [3]: −1.521 Log2 fold change | rtPCR Log2 fold change relative to untreated cells, gene name not printed (Cell Cycle Arrest, row r42) [3]: −2.312 Log2 fold change | rtPCR Log2 fold change relative to untreated cells, gene name not printed (Cellular Adhesion, row r57) [3]: −1.865 Log2 fold change | rtPCR Log2 fold change relative to untreated cells, gene name not printed (HIPPO, row r33) [3]: −1.568 Log2 fold change | rtPCR Log2 fold change relative to untreated cells, gene name not printed (PI3K/AKT/MTOR, row r20) [3]: −2.204 Log2 fold change | rtPCR Log2 fold change relative to untreated cells, gene name not printed (PI3K/AKT/MTOR, row r22) [3]: −2.291 Log2 fold change | rtPCR Log2 fold change relative to untreated cells, gene name not printed (Receptors, row r7) [3]: −2.51 Log2 fold change

CCCCCc1cc(O)c2c(c1)OC(C)(C)c1ccc(C)cc1-2 [CBN, Cannabinol]
Protein fold change, DVLD (Cellular Adhesion) [2]: 1.66 Fold change | Protein fold change, MEK PO4 (MAP kinase/PI3K) [2]: 1.33 Fold change | Protein fold change, PI3K (MAP kinase/PI3K) [2]: 1.46 Fold change | Protein fold change, TEAD2 (HIPPO signaling) [2]: 1.35 Fold change | Protein fold change, c-MYC (Apoptosis) [2]: 1.40 Fold change | Protein fold change, p53 (Apoptosis) [2]: 1.22 Fold change | rtPCR Log2 fold change relative to untreated cells, BAD (Apoptosis) [3]: −1.041 Log2 fold change | rtPCR Log2 fold change relative to untreated cells, ELK1 (Ca signaling) [3]: −1.026 Log2 fold change | rtPCR Log2 fold change relative to untreated cells, MAP3K (MAP kinase) [3]: 1.518 Log2 fold change | rtPCR Log2 fold change relative to untreated cells, MAPK8 (MAP kinase) [3]: −1.284 Log2 fold change | rtPCR Log2 fold change relative to untreated cells, NOTCH1 (NOTCH) [3]: −1.084 Log2 fold change | rtPCR Log2 fold change relative to untreated cells, PIK3C2A (PI3K/AKT/MTOR) [3]: −1.181 Log2 fold change | rtPCR Log2 fold change relative to untreated cells, PIK3R5 (PI3K/AKT/MTOR) [3]: −2.689 Log2 fold change | rtPCR Log2 fold change relative to untreated cells, PPARG (Receptors) [3]: 2.204 Log2 fold change | rtPCR Log2 fold change relative to untreated cells, SMAD3 (TGF signaling) [3]: −3.711 Log2 fold change | rtPCR Log2 fold change relative to untreated cells, SMO (Hedgehog) [3]: 2.336 Log2 fold change | rtPCR Log2 fold change relative to untreated cells, TAZ (HIPPO) [3]: −1.143 Log2 fold change

CCCCCc1cc(O)c(C/C=C(\C)CCC=C(C)C)c(O)c1 [Cannabigerol (CBG), Cannabigerol]
MEI, AUC* % mass [1]: 4.89

C=CC(C)(O)CCC=C(C)C (centres unmarked) [Linalool]
MEI, AUC* % mass [1]: 0.03

Cc1cc(=O)n(-c2ccccc2)n1C [antipyrine]
Hepatic extraction ratio (E) [4]: 0.1

Cc1ncc2n1-c1ccc(Cl)cc1C(c1ccccc1F)=NC2 [midazolam]
Hepatic extraction ratio (E) [4]: 0.5

CC1=CCC2CC1C2(C)C (stereo not drawn) [α-pinene]
MEI, AUC* % mass [1]: 65.77
